Publication PMC5794489 (Biochemical pharmacology, 2017)
Entries after “also recorded” stand apart in the source; their conditions may differ. *1 amine or outer side, *2 acyl side, *3 side chain or, on linkers, in order; H or OH if unused. Where a SMILES comes first, the peptide text is derived from it. [ ]: non-standard residue; d: D form. X1 = O=C([C@H]1CCC[C@@H]1N[*:1])[*:2]; X2 = O=C([C@H]1CNC[C@@H]1N[*:1])[*:2]; Aib = CC(C)(N)C(=O)O

Legend:
human GLP-1R [1] = biological target: T1, human GLP-1R (Homo sapiens, UniProt P43220); experiment: Intracellular calcium mobilization; assay type: cell-based; details: for Emax: read-out: iCa2+ Emax
T1 sequence (P43220 24-463): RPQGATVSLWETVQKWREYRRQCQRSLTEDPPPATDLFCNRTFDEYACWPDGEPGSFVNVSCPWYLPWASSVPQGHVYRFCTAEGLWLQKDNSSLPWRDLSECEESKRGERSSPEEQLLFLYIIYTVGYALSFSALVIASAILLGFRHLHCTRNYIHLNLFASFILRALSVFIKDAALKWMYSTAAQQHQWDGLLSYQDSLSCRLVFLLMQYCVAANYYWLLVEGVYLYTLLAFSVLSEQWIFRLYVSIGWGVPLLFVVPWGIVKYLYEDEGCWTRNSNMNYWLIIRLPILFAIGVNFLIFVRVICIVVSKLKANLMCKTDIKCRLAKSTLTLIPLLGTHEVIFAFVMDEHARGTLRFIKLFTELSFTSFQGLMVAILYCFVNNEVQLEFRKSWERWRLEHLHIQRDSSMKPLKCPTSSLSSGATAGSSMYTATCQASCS

human GLP-1R [2] = biological target: T1, human GLP-1R; experiment: ERK1/2 phosphorylation; assay type: cell-based; details: read-out: pERK1/2 Emax
human GLP-1R [3] = experiment: Stimulus bias, operational model of agonism, Δlog; assay type: cell-based; details: bias relative to GLP-1; FlpInCHO; mean ± SEM, three to four experiments
human GLP-1R [4] = biological target: T1, human GLP-1R; experiment: β-Arrestin-1 recruitment BRET assay; details: for Emax: read-out: β-Arrestin-1 Emax
human GLP-1R [5] = biological target: T1, human GLP-1R; experiment: β-Arrestin-2 recruitment BRET assay; details: for Emax: read-out: β-Arrestin-2 Emax; for β-arrestin-2 recruitment, result in words: FlpInCHO BRET, native β-arrestin-2
human GLP-1R [6] = biological target: T1, human GLP-1R; experiment: Radioligand competition binding on whole GLP-1R FlpInCHO cells; details: GLP-1R in FlpIn CHO cells
human GLP-1R [7] = biological target: T1, human GLP-1R; experiment: cAMP accumulation in GLP-1R FlpInCHO cells; assay type: cell-based; details: Flp-In-CHO, read-out: cAMP Emax
human GLP-1R [8] = details: FlpIn CHO cells; cited from earlier work

Compound | Emax (human GLP-1R [1]) [%] | Emax (human GLP-1R [2]) [%] | Emax (human GLP-1R [7]) [%] | β-arrestin-2 recruitment, result in words (human GLP-1R [5]) | Δlog(τ/KA) Ca2+ vs cAMP (human GLP-1R [3]) | Δlog(τ/KA) pERK1/2 vs cAMP (human GLP-1R [3]) | Δlog(τ/KA) βArr1 vs pERK1/2 (human GLP-1R [3]) | Δlog(τ/KA) βArr2 vs cAMP (human GLP-1R [3]) | Δlog(τ/KA) βArr2 vs pERK1/2 (human GLP-1R [3]) | also measured
CC[C@H](C)[C@H](NC(=O)[C@H](Cc1ccccc1)NC(=O)[C@H](CCC(=O)O)NC(=O)[C@H]1CNC[C@@H]1NC(=O)[C@H](C)NC(=O)[C@H](C)NC(=O)[C@H](CCC(N)=O)NC(=O)[C@H]1CCC[C@@H]1NC(=O)[C@H](CCC(=O)O)NC(=O)[C@H](CC(C)C)NC(=O)[C@H](Cc1ccc(O)cc1)NC(=O)[C@H]1CCC[C@@H]1NC(=O)[C@H](CO)NC(=O)[C@@H](NC(=O)[C@H](CC(=O)O)NC(=O)[C@H](CO)NC(=O)[C@@H](NC(=O)[C@H](Cc1ccccc1)NC(=O)[C@@H](NC(=O)CNC(=O)[C@H](CCC(=O)O)NC(=O)[C@H](C)NC(=O)[C@@H](N)Cc1c[nH]cn1)[C@@H](C)O)[C@@H](C)O)C(C)C)C(=O)N[C@H]1CCC[C@@H]1C(=O)N[C@@H](Cc1c[nH]c2ccccc12)C(=O)N[C@@H](CC(C)C)C(=O)N[C@H](C(=O)N[C@H]1CNC[C@@H]1C(=O)NCC(=O)N[C@@H](CCCNC(=N)N)C(=O)NCC(N)=O)C(C)C [P3] |  |  |  |  |  |  | −0.1 ± 0.3 | 0.5 ± 0.3 | −0.6 ± 0.2 | 
CC[C@H](C)[C@H](NC(=O)[C@H](Cc1ccccc1)NC(=O)[C@H](CCC(=O)O)NC(=O)[C@H]1CNC[C@@H]1NC(=O)[C@H](C)NC(=O)[C@H](C)NC(=O)[C@H](CCC(N)=O)NC(=O)[C@H]1CCC[C@@H]1NC(=O)[C@H](CCC(=O)O)NC(=O)[C@H](CC(C)C)NC(=O)[C@H](Cc1ccc(O)cc1)NC(=O)[C@H]1CCC[C@@H]1NC(=O)[C@H](CO)NC(=O)C(C)(C)NC(=O)[C@H](CC(=O)O)NC(=O)[C@H](CO)NC(=O)[C@@H](NC(=O)[C@H](Cc1ccccc1)NC(=O)[C@@H](NC(=O)CNC(=O)[C@H](CCC(=O)O)NC(=O)C(C)(C)NC(=O)[C@@H](N)Cc1c[nH]cn1)[C@@H](C)O)[C@@H](C)O)C(=O)N[C@H]1CCC[C@@H]1C(=O)N[C@@H](Cc1c[nH]c2ccccc12)C(=O)N[C@@H](CC(C)C)C(=O)N[C@H](C(=O)N[C@H]1CNC[C@@H]1C(=O)NCC(=O)N[C@@H](CCCNC(=N)N)C(=O)NCC(N)=O)C(C)C [P4] (H-H[Aib]EGTFTSD[Aib]S[X1]YLE[X1]QAA[X2]EFI[X1]WLV[X2]GRG-NH2) | 90 ± 40 | 81 ± 8 | 97 ± 7 | weak β-arrestin-2 responses; also recorded: no measurable signal | −0.2 ± 0.2 |  |  |  |  | further reduction in affinity relative to other α/β-peptides in this set (human GLP-1R [6]): 10 fold; β-arrestin-1 recruitment, result in words (human GLP-1R [4]; FlpInCHO BRET): no measurable signal
CC[C@H](C)[C@H](NC(=O)[C@H](Cc1ccccc1)NC(=O)[C@H](CCC(=O)O)NC(=O)[C@H](CCCCN)NC(=O)[C@H](C)NC(=O)[C@H](C)NC(=O)[C@H](CCC(N)=O)NC(=O)CNC(=O)[C@H](CCC(=O)O)NC(=O)[C@H](CC(C)C)NC(=O)[C@H](Cc1ccc(O)cc1)NC(=O)[C@H](CO)NC(=O)[C@H](CO)NC(=O)C(C)(C)NC(=O)[C@H](CC(=O)O)NC(=O)[C@H](CO)NC(=O)[C@@H](NC(=O)[C@H](Cc1ccccc1)NC(=O)[C@@H](NC(=O)CNC(=O)[C@H](CCC(=O)O)NC(=O)C(C)(C)NC(=O)[C@@H](N)Cc1c[nH]cn1)[C@@H](C)O)[C@@H](C)O)C(=O)N[C@@H](C)C(=O)N[C@@H](Cc1c[nH]c2ccccc12)C(=O)N[C@@H](CC(C)C)C(=O)N[C@H](C(=O)N[C@@H](CCCCN)C(=O)NCC(=O)N[C@@H](CCCNC(=N)N)C(=O)NCC(N)=O)C(C)C [P6] | 78 ± 5 | 80 ± 7 |  |  | −0.1 ± 0.2 | 0.1 ± 0.2 | 0.5 ± 0.3 | −0.1 ± 0.2 | −0.3 ± 0.2 | Δlog(τ/KA) βArr1 vs cAMP (human GLP-1R [3]): 0.4 ± 0.1; Δlog(τ/KA) βArr2 vs Ca2+ (human GLP-1R [3]): 0.0 ± 0.2; Emax (human GLP-1R [4]): 72 ± 4%; Emax (human GLP-1R [5]): 82 ± 5%
CC[C@H](C)[C@H](NC(=O)[C@H](Cc1ccccc1)NC(=O)[C@H](CCC(=O)O)NC(=O)[C@H]1CNC[C@@H]1NC(=O)[C@H](C)NC(=O)[C@H](C)NC(=O)[C@H](CCC(N)=O)NC(=O)[C@H]1CCC[C@@H]1NC(=O)[C@H](CCC(=O)O)NC(=O)[C@H](CC(C)C)NC(=O)[C@H](Cc1ccc(O)cc1)NC(=O)[C@H]1CCC[C@@H]1NC(=O)[C@H](CO)NC(=O)[C@@H](NC(=O)[C@H](CC(=O)O)NC(=O)[C@H](CO)NC(=O)[C@@H](NC(=O)[C@H](Cc1ccccc1)NC(=O)[C@@H](NC(=O)CNC(=O)[C@H](CCC(=O)O)NC(=O)[C@H](C)NC(=O)[C@@H](N)Cc1c[nH]cn1)[C@@H](C)O)[C@@H](C)O)C(C)C)C(=O)N[C@@H](C)C(=O)N[C@@H](Cc1c[nH]c2ccccc12)C(=O)N[C@@H](CC(C)C)C(=O)N[C@H](C(=O)N[C@@H](CCCCN)C(=O)NCC(=O)N[C@@H](CCCNC(=N)N)C(=O)NCC(N)=O)C(C)C [P8] (H-HAEGTFTSDVS[X1]YLE[X1]QAA[X2]EFIAWLVKGRG-NH2) |  | 80 ± 8 | 83 ± 5 | weak β-arrestin-2 responses |  | 0.7 ± 0.3 | 0.0 ± 0.3 |  |  | reduction in affinity relative to GLP-1 (human GLP-1R [6]): ~ 10 fold
exendin-4 |  |  |  |  |  |  |  |  |  | bias ERK1/2 phosphorylation over cAMP accumulation, in words (human GLP-1R [8]): does not exhibit bias toward ERK1/2 phosphorylation
oxyntomodulin (HSQGTFTSDYSKYLDSRRAQDFVQWLMNTKRNRNNIA; Oxyntomodulin; UniProt P01275 53-89, looked up) |  |  |  |  |  |  |  |  |  | bias ERK1/2 phosphorylation over cAMP accumulation, in words (human GLP-1R [8]): biases the GLP-1R toward ERK1/2 phosphorylation over cAMP accumulation

Further lines, with some results ahead:

Emax (human GLP-1R [1]) [%] | Emax (human GLP-1R [2]) [%] | Emax (human GLP-1R [7]) [%] | β-arrestin-2 recruitment, result in words (human GLP-1R [5]) | Compound | Δlog(τ/KA) Ca2+ vs cAMP (human GLP-1R [3]) | Δlog(τ/KA) pERK1/2 vs cAMP (human GLP-1R [3]) | Δlog(τ/KA) βArr1 vs pERK1/2 (human GLP-1R [3]) | Δlog(τ/KA) βArr2 vs cAMP (human GLP-1R [3]) | Δlog(τ/KA) βArr2 vs pERK1/2 (human GLP-1R [3]) | also measured
89 ± 8 | 112 ± 8 |  |  | CC[C@H](C)[C@H](NC(=O)[C@H](Cc1ccccc1)NC(=O)[C@H](CCC(=O)O)NC(=O)[C@H]1CNC[C@@H]1NC(=O)[C@H](C)NC(=O)[C@H](C)NC(=O)[C@H](CCC(N)=O)NC(=O)CNC(=O)[C@H](CCC(=O)O)NC(=O)[C@H](CC(C)C)NC(=O)[C@H](Cc1ccc(O)cc1)NC(=O)[C@H](CO)NC(=O)[C@H](CO)NC(=O)[C@@H](NC(=O)[C@H](CC(=O)O)NC(=O)[C@H](CO)NC(=O)[C@@H](NC(=O)[C@H](Cc1ccccc1)NC(=O)[C@@H](NC(=O)CNC(=O)[C@H](CCC(=O)O)NC(=O)[C@H](C)NC(=O)[C@@H](N)Cc1c[nH]cn1)[C@@H](C)O)[C@@H](C)O)C(C)C)C(=O)N[C@H]1CCC[C@@H]1C(=O)N[C@@H](Cc1c[nH]c2ccccc12)C(=O)N[C@@H](CC(C)C)C(=O)N[C@H](C(=O)N[C@H]1CNC[C@@H]1C(=O)NCC(=O)N[C@@H](CCCNC(=N)N)C(=O)NCC(N)=O)C(C)C [P1] (H-HAEGTFTSDVSSYLEGQAA[X2]EFI[X1]WLV[X2]GRG-NH2) | 0.4 ± 0.1 | 0.5 ± 0.2 | 0.0 ± 0.2 | 0.5 ± 0.2 | −0.1 ± 0.3 | Δlog(τ/KA) βArr1 vs Ca2+ (human GLP-1R [3]): −0.1 ± 0.2; Δlog(τ/KA) βArr1 vs cAMP (human GLP-1R [3]): 0.4 ± 0.1; Δlog(τ/KA) βArr2 vs Ca2+ (human GLP-1R [3]): −0.2 ± 0.2; Emax (human GLP-1R [4]): 85 ± 7%; Emax (human GLP-1R [5]): 108 ± 5%
 | 73 ± 9 | 107 ± 5 | weak β-arrestin-2 responses | CC[C@H](C)[C@H](NC(=O)[C@H](Cc1ccccc1)NC(=O)[C@H](CCC(=O)O)NC(=O)[C@H]1CNC[C@@H]1NC(=O)[C@H](C)NC(=O)[C@H](C)NC(=O)[C@H](CCC(N)=O)NC(=O)[C@H]1CCC[C@@H]1NC(=O)[C@H](CCC(=O)O)NC(=O)[C@H](CC(C)C)NC(=O)[C@H](Cc1ccc(O)cc1)NC(=O)[C@H]1CCC[C@@H]1NC(=O)[C@H](CO)NC(=O)[C@@H](NC(=O)[C@H](CC(=O)O)NC(=O)[C@H](CO)NC(=O)[C@@H](NC(=O)[C@H](Cc1ccccc1)NC(=O)[C@@H](NC(=O)CNC(=O)[C@H](CCC(=O)O)NC(=O)[C@H](C)NC(=O)[C@@H](N)Cc1c[nH]cn1)[C@@H](C)O)[C@@H](C)O)C(C)C)C(=O)N[C@H]1CCC[C@@H]1C(=O)N[C@@H](Cc1c[nH]c2ccccc12)C(=O)N[C@@H](CC(C)C)C(=O)N[C@H](C(=O)N[C@@H](CCCCN)C(=O)NCC(=O)N[C@@H](CCCNC(=N)N)C(=O)NCC(N)=O)C(C)C [P9] (H-HAEGTFTSDVS[X1]YLE[X1]QAA[X2]EFI[X1]WLVKGRG-NH2) |  |  | −0.1 ± 0.5 |  |  | reduction in affinity relative to GLP-1 (human GLP-1R [6]): ~ 10 fold; calcium mobilization, result in words (human GLP-1R [1]; FlpIn CHO human GLP-1R): essentially abolished calcium mobilization
